pIC50: −log10 of the molar value.

Series [1] relates to NCI-H1373 cells. Put plainly: Inhibitory effect on the proliferation of NCI-H1373 cells (CellTiter-Glo). The settings on record: Homo sapiens, 144 h, 6 days treatment. Format: cell-based. From the text:
1. Experimental Principle: NCI-H1373 cells are a type of lung adenocarcinoma cells that overexpress PARP7.
2. Experimental Materials: NCI-H1373 cells were obtained from Nanjing Cobioer Biosciences Co., Ltd. CellTiter-Glo® (cell viability chemiluminescent assay reagent) was purchased from Promega (Catalog No. G7571). RPMI-1640 medium was obtained from ATCC (Catalog No. 30-2001). RPMI-1640 medium, penicillin/streptomycin antibiotics were purchased from WISENT. Fetal bovine serum was obtained from Biosera. The Nivo multimode reader was procured from PerkinElmer.
3. Experimental Method: NCI-H1373 cells were seeded in a white 96-well plate with 80 μL of cell suspension per well, containing 3000 NCI-H1373 cells. The cell plate was incubated overnight in a carbon dioxide (CO2) incubator.
The test compounds were serially diluted 5-fold to the 9th concentration, ranging from 2 mmol/L to 5.12 nmol/L, for a duplicate assay. 78 μL of culture medium was added to the intermediate plate, and then, according to the corresponding positions, 2 μL of each gradient-diluted compound was transferred to the intermediate plate. After thorough mixing, 20 μL of the compound solution was transferred to the cell plate. The compound concentration range in the cell plate ranged from 10 μmol/L to 0.0256 nmol/L. The cell plate was incubated in a CO2 incubator for 6 days.
Another cell plate was prepared, and the signal values were read on the day of dosing to obtain the maximum value referred to as Max in the following equation for data analysis. 25 μL of cell viability chemiluminescent assay reagent was added to each well of this cell plate, and it was incubated at room temperature for 10 minutes to stabilize the luminescent signal. Readings were taken using a multimode reader.
After 6 days of treatment, 25 μL of cell viability chemiluminescent assay reagent was added to each well of the cell plate, and it was incubated at room temperature for 10 minutes to stabilize the luminescent signal. Readings were taken using a multimode reader.
The IC50 value was determined by four-parameter curve fitting (obtained by using the “log(inhibitor) vs. response—Variable slope” model in GraphPad Prism).
(In general: In ATP-based viability assays light output follows the ATP content of the culture.)

Series [2] is described as follows: Metabolic stability in human liver microsomes. Format: in vitro ADME. The note with it: pH 7.4, 1.00 μM compound, 0.5 mg/mL protein, read-out: intrinsic clearance, Clint. As for the experimental part:
(§1) 1. Experiment purpose: This study aims to determine the metabolic stability of selected compounds from the embodiments of the invention in liver microsomes of humans, dogs, monkeys, rats, and mice using the LC-MS/MS method.
(§2) Test compounds: The test drug is self-made from the example compounds of the present invention; Positive control compound RBN2397 purchased from Shanghai BioChemPartner Biotechnology Co., Ltd.
(§3) Liver microsomes obtained from Xenotech.
(§4) The incubation was carried out at 37° C. in a CO2 incubator. The reactions were terminated by adding 150 μL of cold acetonitrile at different time points (0, 5, 15, 30, and 45 minutes). The 96-well plate was shaken at 600 rpm for 10 minutes, followed by centrifugation at 6000 rpm for 15 minutes. The supernatant (80 μL) was mixed with 140 μL of pure water, and the remaining amount of the compound was determined using LC-MS/MS. The intrinsic clearance (Clint) was calculated using the formula Clint=k/liver microsomes protein concentration, where “k” is the linear regression slope of log compound remaining percentage against incubation time.

Series [3] in a line: Metabolic stability in dog liver microsomes. Format: in vitro ADME. The settings on record: pH 7.4, 1.00 μM compound, 0.5 mg/mL protein, read-out: intrinsic clearance, Clint. As for the experimental part:
as §1, §2, §3, §4
(In general: Liver microsomes are vesicles of endoplasmic reticulum, rich in cytochrome P450 enzymes.)

The nature of series [4]: Metabolic stability in rat liver microsomes. The format is in vitro ADME. The settings on record: pH 7.4, 1.00 μM compound, 0.5 mg/mL protein, read-out: intrinsic clearance, Clint. As for the experimental part:
as §1, §2, §3, §4

The nature of series [5]: Pharmacokinetic properties in SD rats after single intravenous injection and oral administration. The format is in vivo. The note with it: SD male rats; for F: oral bioavailability; for AUC(0-inf) / Cmax / clearance / half-life: rat, plasma. From the text:
1. Test purpose: to determine the pharmacokinetic characteristics of some of the example compound of the present invention in SD rats after single intravenous injection(IV) and oral administration(PO) by LC-MS/MS method.
2. Test material: the test drug is self-made from the example compounds of the present invention; Positive control compound RBN2397 purchased from Shanghai BioChemPartner Biotechnology Co., Ltd. SD male rats were obtained from the Laboratory Animal Management Department of Shanghai Family Planning Research Institute. Animal production license number (SCXK (Shanghai) 2018-0006).
Preparation of 0.5% methyl cellulose: 5 g of methyl cellulose were weighed and dissolved in 1000 mL of purified water.
Preparation of oral formulation: A required amount of test compound was weighed and dissolved in 0.5% methyl cellulose solution to obtain a suspension or solution of 0.5 mg/mL or 1.0 mg/mL.
Preparation of intravenous injection formulation: A required amount of test compound was weighed, and dissolved in 0.5 mL of dimethyl sulfoxide to prepare a solution of 4 mg/mL. 0.25 mL of the above solution was added into 0.5 mL of polyethylene glycol 15 hydroxystearate (solutol) and 4.25 mL of physiological saline to obtain a solution of 0.2 mg/mL.
Administration: SD male rats were orally administered (PO) after fasting overnight, and fed 4 hours after administration.
Sample Collection: blood was collected through jugular vein or other suitable vein, and 0.2 mL of blood was collected at each time point. Samples were placed into tubes containing ethylenediamine tetraacetic acid dipotassium salt and kept on ice before centrifugation. Within 1 hour after blood collection, the blood samples were centrifuged at 2-8° C. and 6800 g for 6 minutes and stored at −80° C. The time point for blood collection was 0.083, 0.25, 0.5, 1, 2, 4, 8 and 24 hours after intravenous administration, and 0.25, 0.5, 1, 2, 4, 6, 8 and 24 hours after oral administration.
The intravenous dosage was 1 mg/kg, and the pharmacokinetic parameters for oral administration were standardized to a 1 mg/kg dose.

Series [6] concerns the target PARP7 (Homo sapiens (Human), UniProt Q7Z3E1). The series is described as follows: biochemical.
Method: (§5) Experimental Principle: The inhibitory effect of the test substance on the enzymatic activity of PARP1/7 is assessed by using an Enzyme-Linked Immunosorbent Assay (ELISA).
(§6) (1) Pre-coating: Add 100 μL of a PBS buffer (10 mM NaH2PO4, 10 mM Na2HPO4, 150 mM NaCl, pH 7.4) containing 20 g/mL of histone to each well of a 96-well plate, and incubate at 4° C. overnight.
(§7) (3) Add 5 μL of the test substance or solvent to each well.
(§8) (4) Add 20 μL of(PARP1 or PARP7 (50 ng/well), and incubate at 30° C. for 1 hour.
(§9) (5) Add 50 μL of streptavidin-HRP to the reaction mixture, and incubate at 30° C. for 30 minutes.
(§10) (6) Finally, add 100 μL of a citrate buffer containing H2O2 and luminol (0.1 M, pH 5.4), and measure the luminescent signal using a microplate reader (Molecular Devices SpectraMax M5).
(§11) (7) Calculate the inhibition rate of PARP1 or PARP7 enzyme activity as [(control group−treatment group)/control group]×10000. Fit the dose-response data with standard dilutions using Prism GraphPad software and calculate the concentration required to achieve 5000 inhibition of PARP1 or PARP7 enzyme activity (IC50).
Series [7] addresses PARP1 (Homo sapiens (Human), UniProt P09874). Put plainly: biochemical.
Method: as §5, §6, §7, §8, §9, §10, §11
The mark [8] stands for this setting: Oral gavage, standardized to a 1 mg/kg dose.

PARP1, sequence (P09874 whole entry): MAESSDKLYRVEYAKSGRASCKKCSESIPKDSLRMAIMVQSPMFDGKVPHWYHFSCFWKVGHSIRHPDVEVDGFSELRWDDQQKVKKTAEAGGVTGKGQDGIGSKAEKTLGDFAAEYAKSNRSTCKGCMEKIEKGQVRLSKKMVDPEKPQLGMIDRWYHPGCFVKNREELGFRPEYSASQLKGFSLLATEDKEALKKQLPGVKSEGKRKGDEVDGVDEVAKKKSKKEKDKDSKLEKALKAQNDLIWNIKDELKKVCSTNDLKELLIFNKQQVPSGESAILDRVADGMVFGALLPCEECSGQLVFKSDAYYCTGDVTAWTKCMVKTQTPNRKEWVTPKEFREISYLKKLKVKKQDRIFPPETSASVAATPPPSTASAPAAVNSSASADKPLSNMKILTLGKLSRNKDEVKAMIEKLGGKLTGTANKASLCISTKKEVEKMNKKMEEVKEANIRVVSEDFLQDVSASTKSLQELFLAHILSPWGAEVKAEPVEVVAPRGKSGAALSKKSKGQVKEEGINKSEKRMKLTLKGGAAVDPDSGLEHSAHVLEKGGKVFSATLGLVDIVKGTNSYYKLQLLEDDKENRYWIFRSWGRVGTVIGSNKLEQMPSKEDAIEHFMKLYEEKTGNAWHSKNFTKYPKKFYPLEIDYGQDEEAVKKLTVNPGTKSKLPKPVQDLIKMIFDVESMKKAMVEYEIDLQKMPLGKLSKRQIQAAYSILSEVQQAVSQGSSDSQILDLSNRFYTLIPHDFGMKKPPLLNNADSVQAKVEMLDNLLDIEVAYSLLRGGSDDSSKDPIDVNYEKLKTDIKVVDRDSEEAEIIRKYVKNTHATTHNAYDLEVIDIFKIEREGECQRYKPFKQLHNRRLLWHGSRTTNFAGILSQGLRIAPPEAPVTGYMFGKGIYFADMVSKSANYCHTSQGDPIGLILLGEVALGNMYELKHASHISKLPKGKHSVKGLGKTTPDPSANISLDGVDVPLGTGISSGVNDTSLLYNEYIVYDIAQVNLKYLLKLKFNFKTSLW
PARP7, sequence (Q7Z3E1 whole entry): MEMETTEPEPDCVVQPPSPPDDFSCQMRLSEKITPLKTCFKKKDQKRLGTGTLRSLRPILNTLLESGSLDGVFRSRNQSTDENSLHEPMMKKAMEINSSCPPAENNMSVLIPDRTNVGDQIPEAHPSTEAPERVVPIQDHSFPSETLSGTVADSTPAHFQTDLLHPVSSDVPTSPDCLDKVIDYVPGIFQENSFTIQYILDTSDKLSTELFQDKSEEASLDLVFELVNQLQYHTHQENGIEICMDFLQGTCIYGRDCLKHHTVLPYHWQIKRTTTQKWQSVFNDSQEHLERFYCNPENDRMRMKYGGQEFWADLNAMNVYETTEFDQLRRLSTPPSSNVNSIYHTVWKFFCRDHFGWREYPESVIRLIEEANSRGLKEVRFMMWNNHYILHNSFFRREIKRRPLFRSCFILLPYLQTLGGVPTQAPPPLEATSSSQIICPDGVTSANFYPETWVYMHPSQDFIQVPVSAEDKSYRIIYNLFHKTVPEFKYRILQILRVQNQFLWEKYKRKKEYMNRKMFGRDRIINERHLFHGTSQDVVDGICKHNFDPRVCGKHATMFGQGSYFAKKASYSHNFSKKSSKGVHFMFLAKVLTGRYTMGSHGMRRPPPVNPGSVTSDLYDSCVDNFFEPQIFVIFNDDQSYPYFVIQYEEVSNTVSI

A word on the pIC50: it is the IC50 on a negative log10 scale, so that one unit is a factor of ten. As a reminder, the AUC(0-inf) is total exposure, with the tail of the curve extrapolated. Read a high AUC(0-inf) as high exposure. What is called Cmax is the peak of the concentration-time curve. For orientation: half-life means the time in which the quantity being followed falls by half. Low values mean fast loss, high ones slow loss. Consider `O=C(CC[C@@H]1CCCN1c1cc(C(F)(F)F)c(=O)[nH]n1)N1CCN(c2ncc(C(F)(F)F)cn2)CC1` [Compound 6], for which the pIC50 in series [1] is 8.00. The CLint scaled at 1 μM in series [2] amounted to 64.6 mL/min/kg. In series [3], the CLint scaled at 1 μM was found to be 31.6 mL/min/kg. In addition, in series [4], the CLint scaled at 1 μM was 137 mL/min/kg. The compound further had a F in series [5] (Oral gavage) of 18.1%. In addition, in series [5] (Intravenous injection, 1 mg/kg), the AUC(0-inf) is 1380 ng·h/mL, the Cmax worked out at 1950 ng/mL, the clearance was 12.2 mL/min/kg and the half-life is 85.8 min. In series [5] (setting [8]), this compound had an AUC(0-inf) of 248 ng·h/mL and a Cmax of 30.4 ng/mL.

In series [1], `O=C(CC[C@@H]1C[C@@H](Oc2ccccc2)CN1c1cc(C(F)(F)F)c(=O)[nH]n1)N1CCN(c2ncc(C(F)(F)F)cn2)CC1` [Compound 21] gave a pIC50 of 7.13. In series [5] (Oral gavage), this compound had an F of 21.18%. In series [5] (Intravenous injection, 1 mg/kg), this compound showed an AUC(0-inf) of 482 ng·h/mL, a Cmax of 1210 ng/mL, a clearance of 36.9 mL/min/kg and a half-life of 30.6 min. For the same compound, in series [5] (setting [8]), the AUC(0-inf) is 111 ng·h/mL and the Cmax was 40.2 ng/mL. Besides, in series [6], the pIC50 was 8.47. The compound further had a pIC50 in series [7] of 6.09.

In series [1], `O=C(CC[C@@H]1C[C@@H](F)CN1c1cc(C(F)(F)F)c(=O)[nH]n1)N1CCN(c2ncc(C(F)(F)F)cn2)CC1` [Compound 20] showed a pIC50 of 7.91. In addition, the CLint scaled at 1 μM amounted to 46.6 mL/min/kg in series [2], 28.7 mL/min/kg in series [3] and 74.4 mL/min/kg in series [4]. In addition, in series [5] (Oral gavage), the F is 15.53%. In addition, the AUC(0-inf) came to 523 ng·h/mL in series [5] (Intravenous injection, 1 mg/kg) and 94.4 ng·h/mL in series [5] (setting [8]). The Cmax in series [5] (Intravenous injection, 1 mg/kg) is 734 ng/mL; in series [5] (setting [8]), 15 ng/mL. The compound further gave a clearance in series [5] (Intravenous injection, 1 mg/kg) of 32 mL/min/kg. This compound also gave a half-life in series [5] (Intravenous injection, 1 mg/kg) of 49.2 min.
